# Reference: US20240261417A1, “SOS1 DEGRADING AGENT AND PREPARATION METHOD THEREFOR AND APPLICATION THEREOF” (SHANGHAI LEADINGTAC PHARMACEUTICAL CO. LTD., priority 2021, published 2024)
# Columns and labels:
# SOS1 protein = target: T1, SOS1 protein (Homo sapiens, UniProt Q07889); assay: SOS1 degradation assay (Western blot), NCI-H358 cells; format: cell-based; set-up: The degradation of SOS1 by the compounds was investigated on KRAS G12C mutant human non-small cell lung cancer cells NCI-H358; host or cells: NCI-H358 (human cancer cell lines); conditions: SOS1 degradation, NCI-H358 cells, 24 h, Western blot; for DC50: read-out: NCI-H358 (G12C) DC50; for Dmax: read-out: NCI-H358 (G12C) Dmax
# T1 sequence (Q07889 1-1333): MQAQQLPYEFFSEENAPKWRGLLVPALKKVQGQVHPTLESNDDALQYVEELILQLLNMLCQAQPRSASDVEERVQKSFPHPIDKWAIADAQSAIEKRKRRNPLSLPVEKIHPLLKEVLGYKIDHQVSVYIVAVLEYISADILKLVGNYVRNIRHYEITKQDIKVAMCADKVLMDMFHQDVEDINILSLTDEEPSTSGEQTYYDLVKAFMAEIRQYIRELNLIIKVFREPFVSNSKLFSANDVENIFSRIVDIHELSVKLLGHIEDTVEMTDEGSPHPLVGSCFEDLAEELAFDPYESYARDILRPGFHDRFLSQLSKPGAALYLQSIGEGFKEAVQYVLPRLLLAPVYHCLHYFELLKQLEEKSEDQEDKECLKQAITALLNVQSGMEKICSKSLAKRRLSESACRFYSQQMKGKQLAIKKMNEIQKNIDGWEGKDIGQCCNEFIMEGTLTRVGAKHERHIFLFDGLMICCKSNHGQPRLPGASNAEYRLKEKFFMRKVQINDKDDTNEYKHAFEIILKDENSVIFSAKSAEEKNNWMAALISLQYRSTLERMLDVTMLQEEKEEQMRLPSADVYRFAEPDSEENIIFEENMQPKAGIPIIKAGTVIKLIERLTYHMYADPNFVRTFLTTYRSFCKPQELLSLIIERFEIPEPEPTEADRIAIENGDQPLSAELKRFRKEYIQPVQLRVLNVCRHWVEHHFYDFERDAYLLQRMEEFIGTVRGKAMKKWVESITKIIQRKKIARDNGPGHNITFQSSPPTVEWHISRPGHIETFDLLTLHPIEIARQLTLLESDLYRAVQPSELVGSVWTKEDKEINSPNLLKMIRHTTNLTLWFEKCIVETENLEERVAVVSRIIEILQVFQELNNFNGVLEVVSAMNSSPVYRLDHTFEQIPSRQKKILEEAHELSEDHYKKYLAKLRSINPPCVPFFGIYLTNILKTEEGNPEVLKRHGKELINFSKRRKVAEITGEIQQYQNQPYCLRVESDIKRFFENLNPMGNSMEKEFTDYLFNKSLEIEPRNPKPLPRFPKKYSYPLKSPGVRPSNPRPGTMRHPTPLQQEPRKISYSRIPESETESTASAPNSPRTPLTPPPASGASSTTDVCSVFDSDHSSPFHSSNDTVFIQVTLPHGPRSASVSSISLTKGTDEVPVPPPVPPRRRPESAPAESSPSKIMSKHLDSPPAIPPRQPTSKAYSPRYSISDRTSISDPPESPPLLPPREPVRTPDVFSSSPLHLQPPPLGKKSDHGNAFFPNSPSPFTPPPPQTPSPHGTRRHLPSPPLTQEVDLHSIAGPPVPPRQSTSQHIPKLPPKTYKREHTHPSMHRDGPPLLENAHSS
# Method in brief: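 SOS1 degradation was assessed by densitometry of Western blots, relative to untreated controls, after 24 h compound exposure (0.03–3000 nM final, 37 °C, 5% CO2) of cells seeded at 5×10^5/well. Log concentration–response fitting gave DC50 and Dmax.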
# KRAS-G12C/SOS1 = target: T2, KRAS-G12C/SOS1 (Homo sapiens, UniProt Q07889); assay: KRAS-G12C/SOS1 binding assay (HTRF); conditions: inhibition of KRAS-G12C/SOS1 binding
# T2 construct: purchased Cisbio 63ADKOOOCB16PEG
# T2 sequence (Q07889 1-1333): T1 sequence (Q07889 1-1333)
# Experimental: The following method was used to determine the extent of inhibition of KRAS-G12C/SOS1 binding by the preferred compounds of the present invention under in vitro conditions. In this method, the competitive inhibition of KRAS-G12C/SOS1 binding by the preferred compounds was assayed by the homogeneous time-resolved fluorescence (HTRF) technology using the KRAS-G12C/SOS1 binding assay kit (Cisbio, 63ADKOOOCB16PEG).
# The experimental procedures were as follows (refer to the kit instructions for details): the compounds of the present invention were each firstly dissolved in DMSO at a concentration of 20 mM, and then diluted in an equal gradient with a buffer in the kit, so that the final concentrations of the test compounds in the reaction system were in a range of 10000 nM-0.04 nM, and the final concentration of DMSO was 0.5%. 2 μL of the compounds were each incubated with 4 μL of 1×Tag1-SOS1, 4 μL of 1×Tag2-KRAS-G12C (containing 10 μM guanosine triphosphate, GTP) at 25° C. for 15 min. Then 5 μL of 1× Anti-Tag1-Tb3+ and 5 μL of 1× Anti-Tag2-XL665 were added to the reaction system, and the mixture was incubated on ice for 3 h. After the incubation, the fluorescence intensity of each well was measured at the excitation wavelength of 337 nm, the fluorescence intensity of each well was read at the emission wavelengths of 620 nm and 665 nm on a microplate reader EnVision (PerkinElmer, 2105) in an HTRF mode, and the Ratio value was calculated by the formula Ratio=(665 nm/620 nm)×[…]. The inhibition rates of the compounds at each concentration were calculated by comparing the fluorescence intensity ratio with that of the control group, and then nonlinear curve fitting was performed by GraphPad Prism 8 in the logarithmic concentration-inhibition rate to obtain the IC50 values of the compounds, as shown in Table 1.
DC50 (SOS1 protein) [µM],Dmax (SOS1 protein) [%],IC50 (KRAS-G12C/SOS1) [µM],SMILES
< 0.05,50 to 80,≤ 0.015,"COc1cc2nc(C)nc(N[C@H](C)c3cc(-c4c(Cl)cccc4CN(C)C)cs3)c2cc1C1=CCC(C(=O)N2CCC(CCOCC3CCN(C(=O)c4ccc(Cl)c(C5CCC(=O)NC5=O)c4)CC3)CC2)CC1 (stereo partly drawn) [Example 46, 3-(2-chloro-5-(4-((2-(1-(4-(4-(((R)-1-(4-(2-chloro-6-((dimethylamino)methyl)phenyl)thien-2-yl)ethyl)amino)-7-methoxy-2-methylquinazolin-6-yl)cyclohex-3-ene-1-carbonyl)piperidin-4-yl)ethoxy)methyl)piperidine-1-carbonyl)phenyl)piperidine-2,6-dione]"
< 0.05,80 to 100,≤ 0.015,"COc1cc2nc(C)nc(N[C@H](C)c3cc(-c4c(Cl)cccc4CN(C)C)cs3)c2cc1[C@H]1CC[C@H](C(=O)N2CCN(CCCCC3CCN(C(=O)c4ccc(Cl)c(N5CCC(=O)NC5=O)c4)CC3)CC2)CC1 [Example 71, 1-(2-chloro-5-(4-(4-(4-((1R,4R)-4-(4-(((R)-1-(4-(2-chloro-6-((dimethylamino)methyl)phenyl)thien-2-yl)ethyl)amino)-7-methoxy-2-methylquinazolin-6-yl)cyclohexane-1-carbonyl)piperazin-1-yl)butyl)piperidine-1-carbonyl)phenyl)dihydropyrimidine-2,4(1H,3H)-dione]"
0.05 to 0.1,50 to 80,≤ 0.015,"COc1cc2nc(C)nc(N[C@H](C)c3cc(-c4c(Cl)cccc4CN(C)C)cs3)c2cc1[C@H]1CC[C@H](C(=O)N2CCC(CCCC3CCN(C(=O)c4ccc(Cl)c(N5CCC(=O)NC5=O)c4)CC3)CC2)CC1 [Example 79, 1-(2-chloro-5-(4-(3-(1-((1R,4R)-4-(4-(((R)-1-(4-(2-chloro-6-((dimethylamino)methyl)phenyl)thien-2-yl)ethyl)amino)-7-methoxy-2-methylquinazolin-6-yl)cyclohexane-1-carbonyl)piperidin-4-yl)propyl)piperidine-1-carbonyl)phenyl)dihydropyrimidine-2,4(1H,3H)-dione]"
0.1 to 0.5,50 to 80,≤ 0.015,"[2H]C1([2H])CC(OCC2CCN(C(=O)[C@H]3CC[C@H](c4cc5c(N[C@H](C)c6cc(N)cc(C(F)(F)F)c6)nc(C)nc5cc4OC)CC3)CC2)CC([2H])([2H])N1C(=O)c1ccc(Cl)c(N2CCC(=O)NC2=O)c1 [Example 45, 1-(5-(4-((1-((1R,4R)-4-(4-(((R)-1-(3-amino-5-(trifluoromethyl)phenyl)ethyl)amino)-7-methoxy-2-methylquinazolin-6-yl)cyclohexane-1-carbonyl)piperidin-4-yl)methoxy)piperidine-1-carbonyl-2,2,6,6-d4)-2-chlorophenyl)dihydropyrimidine-2,4(1H,3H)-dione]"
< 0.05,50 to 80,≤ 0.015,"COc1cc2nc(C)nc(N[C@H](C)c3cc(N)cc(C(F)(F)F)c3)c2cc1C1=CCC(C(=O)N2CCN(CCOCC3CCN(C(=O)c4ccc(Cl)c(N5CCC(=O)NC5=O)c4)CC3)CC2)CC1 (stereo partly drawn) [Example 53, 1-(5-(4-((2-(4-(4-(4-(((R)-1-(3-amino-5-(trifluoromethyl)phenyl)ethyl)amino)-7-methoxy-2-methylquinazolin-6-yl)cyclohex-3-ene-1-carbonyl)piperazin-1-yl)ethoxy)methyl)piperidine-1-carbonyl)-2-chlorophenyl)dihydropyrimidine-2,4(1H,3H)-dione]"
< 0.05,80 to 100,≤ 0.015,"COc1ccc(C(=O)N2CCC3(CCC(CN4CCN(C(=O)[C@H]5CC[C@H](c6cc7c(N[C@H](C)c8cc(-c9c(Cl)cccc9CN(C)C)cs8)nc(C)nc7cc6OC)CC5)CC4)CC3)CC2)cc1N1CCC(=O)NC1=O [Example 59, 1-(5-(9-((4-((1R,4R)-4-(4-(((R)-1-(4-(2-chloro-6-((dimethylamino)methyl)phenyl)thien-2-yl)ethyl)amino)-7-methoxy-2-methylquinazolin-6-yl)cyclohexane-1-carbonyl)piperazin-1-yl)methyl)-3-azaspiro[5.5]undecane-3-carbonyl)-2-methoxyphenyl)dihydropyrimidine-2,4(1H,3H)-dione]"
1 to 10,< 30,≤ 0.015,"CNCc1ccccc1-c1csc([C@@H](C)Nc2nc(C)nc3cc(OC)c([C@H]4CC[C@H](C(=O)N(C)CCCC5CCN(C(=O)c6ccc(Cl)c(N7CCC(=O)NC7=O)c6)CC5)CC4)cc23)c1 [Example 47, (1R,4R)—N-(3-(1-(4-chloro-3-(2,4-dioxotetrahydropyrimidin-1(2H)-yl)benzoyl)piperidin-4-yl)propyl)-4-(7-methoxy-2-methyl-4-(((R)-1-(4-(2-((methylamino)methyl)phenyl)thien-2-yl)ethyl)amino)quinazolin-6-yl)-N-methylcyclohexane-1-carboxamide]"
< 0.05,,≤ 0.015,"COc1cc2nc(C)nc(N[C@H](C)c3cc(-c4c(Cl)cccc4CN(C)C)cs3)c2cc1[C@H]1CC[C@H](C(=O)N2CCC(CCOCC3CCN(C(=O)c4ccc(C(F)(F)F)c(N5CCC(=O)NC5=O)c4)CC3)CC2)CC1 [Example 57, 1-(5-(4-((2-(1-((1R,4R)-4-(4-(((R)-1-(4-(2-chloro-6-((dimethylamino)methyl)phenyl)thien-2-yl)ethyl)amino)-7-methoxy-2-methylquinazolin-6-yl)cyclohexane-1-carbonyl)piperidin-4-yl)ethoxy)methyl)piperidine-1-carbonyl)-2-(trifluoromethyl)phenyl)dihydropyrimidine-2,4(1H,3H)-dione]"
< 0.05,80 to 100,≤ 0.015,"COc1cc2nc(C)nc(N[C@H](C)c3cc(-c4c(Cl)cccc4CN(C)C)cs3)c2cc1[C@H]1CC[C@H](C(=O)N2CCC(COCCC3CCN(C(=O)c4ccc(Cl)c(N5CCC(=O)NC5=O)c4)CC3)CC2)CC1 [Example 70, 1-(2-chloro-5-(4-(2-((1-((1R,4R)-4-(4-(((R)-1-(4-(2-chloro-6-((dimethylamino)methyl)phenyl)thien-2-yl)ethyl)amino)-7-methoxy-2-methylquinazolin-6-yl)cyclohexane-1-carbonyl)piperidin-4-yl)methoxy)ethyl)piperidine-1-carbonyl)phenyl)dihydropyrimidine-2,4(1H,3H)-dione]"
